Data taken from US20050250677A1, “Glycopeptide antibiotic derivatives” (priority 2002, published 2005).
Like-named read-outs stand apart in the source and are kept apart here.

What was measured:
human lymphocyte CEM = assay: Cytostatic activity assay, CEM cells; format: cell-based; conditions: read-out: IC50 CEM (compound concentration required to inhibit tumor cell proliferation by 50%)
HIV-1 (IIIB) = assay: Inhibition of HIV-1 (IIIB)-induced cytopathicity (giant cell formation) in CEM cells; format: cell-based
Experimental: (§1) A variety of glycopeptide antibiotic derivatives of vancomycin, eremomycin and teicoplanin including their aglycon derivatives were evaluated for their inhibitory activity against HIV-1 (IIIB) and HIV-2(ROD) in CEM cell cultures.

[1] = system: human lymphocyte Molt4/clone 8; assay: Cytostatic activity assay, Molt4/clone 8 cells; format: cell-based; conditions: read-out: IC50 Molt4/C8 (compound concentration required to inhibit tumor cell proliferation by 50%)
HIV-2(ROD) = assay: Inhibition of HIV-2 (ROD)-induced cytopathicity (giant cell formation) in CEM cells; format: cell-based; conditions: read-out: EC50 HIV-2 (concentration required to inhibit HIV-induced giant cell formation by 50%); HIV-2, CEM cell cultures
Experimental: as §1

murine leukemia L1210 = assay: Cytostatic activity assay, L1210 cells; format: cell-based; conditions: read-out: IC50 L1210 (compound concentration required to inhibit tumor cell proliferation by 50%)
HEL cells [2] = conditions: anti-VZV table
VZV (wild-type strains) = assay: Anti-VZV assay (wild-type strains): virus-induced cytopathicity in HEL cell cultures; format: cell-based, varicella-zoster virus; conditions: HEL cell cultures
HEL cells [3] = conditions: read-out: CC50 (HEL); HEL cells; anti-VZV table
[4] = read-out: EC50 HIV-1 (concentration required to inhibit HIV-induced giant cell formation by 50%), HIV-1, CEM cell cultures
[5] = VZV strain OKA, read-out: EC50 VZV (OKA)
[6] = VZV strain YS, read-out: EC50 VZV (YS)

Compound | IC50 (human lymphocyte CEM) | EC50 (HIV-1 (IIIB); HIV-1 (IIIB), CEM cell cultures, read-out: EC50 against HIV-1) | EC50 (HIV-1 (IIIB); [4]) | IC50 [1] | EC50 (HIV-2(ROD)) | IC50 (murine leukemia L1210) | MTC (HEL) (HEL cells [2]) | EC50 (VZV (wild-type strains); [5]) | EC50 (VZV (wild-type strains); [6]) | CC50 (HEL cells [3])
CCCCCCCCCC[N+](C)(C)CCCNC(=O)C1NC(=O)C2NC(=O)C(NC(=O)C3NC(=O)C(CC(N)=O)NC(=O)C(NC(=O)C(CC(C)C)NC)C(O)c4ccc(c(Cl)c4)Oc4cc3cc(c4OC3OC(CO)C(O)C(O)C3OC3CC(C)(N)C(O)C(C)O3)Oc3ccc(cc3Cl)C2O)c2ccc(O)c(c2)-c2c(O)cc(O)cc21 (stereo not drawn) [Compound 2] | 172 ± 15 µM | 12 µM | 5.5 ± 0.7 µM | 53 ± 1 µM | > 50 µM | 60 ± 8 µM | – | – | – | –
CCCCc1ccc(CNC(=O)C2NC(=O)C3NC(=O)C(NC(=O)C4NC(=O)C(CC(N)=O)NC(=O)C(NC(=O)C(CC(C)C)NC)C(O)c5ccc(c(Cl)c5)Oc5cc4cc(c5OC4OC(CO)C(O)C(O)C4OC4CC(C)(N)C(O)C(C)O4)Oc4ccc(cc4)C3OC3CC(C)(N)C(O)C(C)O3)c3ccc(O)c(c3)-c3c(O)cc(O)cc32)cc1 (stereo not drawn) [Compound 76] | – | – | – | – | – | – | ≧5-20 μM | 2.7 µM | > 2 µM | 98 µM
CCCCCCCNC(=O)C1NC(=O)C2NC(=O)C(NC(=O)C3NC(=O)C(CC(N)=O)NC(=O)C(NC(=O)C(CC(C)C)NC)C(O)c4ccc(c(Cl)c4)Oc4cc3cc(c4OC3OC(CO)C(O)C(O)C3OC3CC(C)(N)C(O)C(C)O3)Oc3ccc(cc3)C2OC2CC(C)(N)C(O)C(C)O2)c2ccc(O)c(c2)-c2c(O)cc(O)cc21 (stereo not drawn) [Compound 77] | – | – | – | – | – | – | ≧20-50 μM | 7 µM | 5 µM | 129 µM
CCCCc1ccc(CNC2C(Oc3c4cc5cc3Oc3ccc(cc3Cl)C(O)C3NC(=O)C(NC(=O)C5NC(=O)C5NC(=O)C(Cc6ccc(cc6)O4)NC(=O)C(NC)c4ccc(O)c(c4)Oc4cc(O)c(Cl)c5c4)c4ccc(O)c(c4)-c4c(cc(O)c(CN5CCN(Cc6ccc(-c7ccccc7)cc6)CC5)c4O)C(C(=O)O)NC3=O)OC(C(=O)O)C(O)C2O)cc1 (stereo not drawn) [Compound 93] | 81 µM | – | 3.5 µM | – | 22 µM | – | – | – | – | –
CCCCCCCCCC[N+](C)(C)CCCNCc1c(O)cc2c(c1O)-c1cc(ccc1O)C1NC(=O)C3NC(=O)C4NC(=O)C(Cc5ccc(cc5)Oc5cc3cc(c5OC3OC(C(=O)O)C(O)C(O)C3N)Oc3ccc(cc3Cl)C(O)C(NC1=O)C(=O)NC2C(=O)O)NC(=O)C(NC)c1ccc(O)c(c1)Oc1cc(O)c(Cl)c4c1 (stereo not drawn) [Compound 95] | 92 µM | – | 3.5 µM | – | ≥ 20 µM | – | – | – | – | –
NC1C(=O)NC2Cc3ccc(c(Cl)c3)Oc3cc4cc(c3O)Oc3ccc(cc3Cl)C(O)C3NC(=O)C(NC(=O)C4NC(=O)C(NC2=O)c2cc(O)cc(c2)Oc2cc1ccc2O)c1ccc(O)c(c1)-c1c(O)cc(O)cc1C(C(=O)N1CCN(N=Cc2ccc(Cl)cc2)CC1)NC3=O (stereo not drawn) [Compound 113] | – | – | – | – | – | – | ≧5-20 μM | 0.68 µM | 0.42 µM | > 50 µM
CN(Cc1ccc(-c2ccccc2)cc1)Cc1c(O)cc2c(c1O)-c1cc(ccc1O)C1NC(=O)C3NC(=O)C4NC(=O)C(Cc5ccc(c(Cl)c5)Oc5cc3cc(c5O)Oc3ccc(cc3Cl)C(O)C(NC1=O)C(=O)NC2C(=O)O)NC(=O)C(N)c1ccc(O)c(c1)Oc1cc(O)cc4c1 (stereo not drawn) [Compound 117] | – | – | – | – | – | – | ≧5-80 μM | 2.9 µM | 2.7 µM | > 50 µM
NC1C(=O)NC2Cc3ccc(c(Cl)c3)Oc3cc4cc(c3O)Oc3ccc(cc3Cl)C(O)C3NC(=O)C(NC(=O)C4NC(=O)C(NC2=O)c2cc(O)cc(c2)Oc2cc1ccc2O)c1ccc(O)c(c1)-c1c(cc(O)c(CN2CCN(Cc4ccc(Cl)cc4)CC2)c1O)C(C(=O)O)NC3=O (stereo not drawn) [Compound 119] | – | – | – | – | – | – | 20 to 400 µM | 5 µM | – | > 50 µM
CNC(=O)C1NC(=O)C2NC(=O)C(NC(=O)C3NC(=O)C4NC(=O)C(Cc5ccc(c(Cl)c5)Oc5cc3cc(c5O)Oc3ccc(cc3Cl)C2O)NC(=O)C(N)c2ccc(O)c(c2)Oc2cc(O)cc4c2)c2ccc(O)c(c2)-c2c(O)cc(O)cc21 (stereo not drawn) [Compound 120] | – | – | – | – | – | – | ≧20-200 μM | 9 µM | 10 µM | > 200 µM
CCCCCCCCCCNCc1c(O)cc2c(c1O)-c1cc(ccc1O)C1NC(=O)C3NC(=O)C4NC(=O)C(Cc5ccc(c(Cl)c5)Oc5cc3cc(c5O)Oc3ccc(cc3Cl)C(O)C(NC1=O)C(=O)NC2C(=O)NCCCN(C)C)NC(=O)C(NC(=O)C(N)CCCCN)c1ccc(O)c(c1)Oc1cc(O)cc4c1 (stereo not drawn) [Compound 121] | – | – | – | – | – | – | ≧5-20 μM | 2.3 µM | 3.1 µM | 40 µM
CCCCc1ccc(CNC2C(=O)NC3Cc4ccc(c(Cl)c4)Oc4cc5cc(c4O)Oc4ccc(cc4Cl)C(O)C4NC(=O)C(NC(=O)C5NC(=O)C(NC3=O)c3cc(O)cc(c3)Oc3cc2ccc3O)c2ccc(O)c(c2)-c2c(cc(O)c(CN3CCN(Cc5ccc(-c6ccccc6)cc5)CC3)c2O)C(C(=O)N2CCN(Cc3ccc(-c5ccccc5)cc3)CC2)NC4=O)cc1 (stereo not drawn) [Compound 123] | – | – | – | – | – | – | ≧5-200 μM | 2.8 µM | – | > 50 µM
NC1C(=O)NC2Cc3ccc(c(Cl)c3)Oc3cc4cc(c3OCc3ccc(-c5ccccc5)cc3)Oc3ccc(cc3Cl)C(O)C3NC(=O)C(NC(=O)C4NC(=O)C(NC2=O)c2cc(O)cc(c2)Oc2cc1ccc2O)c1ccc(O)c(c1)-c1c(O)cc(O)cc1C(C(=O)O)NC3=O (stereo not drawn) [Compound 128] | – | – | – | – | – | – | 20 µM | 1.8 µM | 0.8 µM | 48 µM
CCCCc1ccc(CNCc2c(O)cc3c(c2O)-c2cc(ccc2O)C2NC(=O)C4NC(=O)C5NC(=O)C(Cc6ccc(c(Cl)c6)Oc6cc4cc(c6O)Oc4ccc(cc4Cl)C(O)C(NC2=O)C(=O)NC3C(=O)O)NC(=O)C(N)c2ccc(O)c(c2)Oc2cc(O)cc5c2)cc1 (stereo not drawn) [Compound 136] | – | – | – | – | – | – | 20 to 50 µM | 3.1 µM | 4.1 µM | > 50 µM
CCCCN(CCCC)c1ccc(CNC(=O)C2NC(=O)C3NC(=O)C(NC(=O)C4NC(=O)C5NC(=O)C(Cc6ccc(c(Cl)c6)Oc6cc4cc(c6O)Oc4ccc(cc4Cl)C3O)NC(=O)C(N)c3ccc(O)c(c3)Oc3cc(O)cc5c3)c3ccc(O)c(c3)-c3c(O)cc(O)cc32)cc1 (stereo not drawn) [Compound 137] | – | – | – | – | – | – | >5 to 20 µM | 0.22 µM | 0.43 µM | 98 µM
CNCc1c(O)cc2c(c1O)-c1cc(ccc1O)C1NC(=O)C3NC(=O)C4NC(=O)C(Cc5ccc(c(Cl)c5)Oc5cc3cc(c5O)Oc3ccc(cc3Cl)C(O)C(NC1=O)C(=O)NC2C(=O)O)NC(=O)C(NC(=O)OC(C)(C)C)c1ccc(O)c(c1)Oc1cc(O)cc4c1 (stereo not drawn) [Compound 140] | – | – | – | – | – | – | ≧50-200 μM | 13 µM | – | > 50 µM
CCCCCCCCCC(=O)N1CCN(Cc2c(O)cc3c(c2O)-c2cc(ccc2O)C2NC(=O)C4NC(=O)C5NC(=O)C(Cc6ccc(c(Cl)c6)Oc6cc4cc(c6O)Oc4ccc(cc4Cl)C(O)C(NC2=O)C(=O)NC3C(=O)O)NC(=O)C(N)c2ccc(O)c(c2)Oc2cc(O)cc5c2)CC1 (stereo not drawn) [Compound 141] | – | – | – | – | – | – | 50 µM | 7.1 µM | – | > 50 µM
CCCCc1ccc(CNCC(=O)N2CCN(Cc3c(O)cc4c(c3O)-c3cc(ccc3O)C3NC(=O)C5NC(=O)C6NC(=O)C(Cc7ccc(c(Cl)c7)Oc7cc5cc(c7O)Oc5ccc(cc5Cl)C(O)C(NC3=O)C(=O)NC4C(=O)O)NC(=O)C(N)c3ccc(O)c(c3)Oc3cc(O)cc6c3)CC2)cc1 (stereo not drawn) [Compound 142] | – | – | – | – | – | – | 50 µM | 20 µM | – | > 50 µM
CCCCc1ccc(CNCC(=O)N2CCN(Cc3c(O)cc4c(c3O)-c3cc(ccc3O)C3NC(=O)C5NC(=O)C6NC(=O)C(Cc7ccc(c(Cl)c7)Oc7cc5cc(c7O)Oc5ccc(cc5Cl)C(O)C(NC3=O)C(=O)NC4C(=O)NC)NC(=O)C(N)c3ccc(O)c(c3)Oc3cc(O)cc6c3)CC2)cc1 (stereo not drawn) [Compound 143] | – | – | – | – | – | – | ≧20-50 μM | 2.8 µM | 2.6 µM | > 50 µM
O=C1NC2C(=O)NC3C(=O)NC4C(=O)NC(C(=O)NC(C(=O)O)c5cc(O)cc(O)c5-c5cc4ccc5O)C(O)c4ccc(c(Cl)c4)Oc4cc3cc(c4O)Oc3ccc(cc3Cl)CC1NC(=O)C(NC(=O)C13CC4CC(CC(C4)C1)C3)c1ccc(O)c(c1)Oc1cc(O)cc2c1 (stereo not drawn) [Compound 164] | – | – | 10 µM | – | 4 µM | – | – | – | – | –
